Data from article PMC7367283, “A PIP2 substitute mediates voltage sensor-pore coupling in KCNQ activation” (Communications Biology, 2020).

Biological target: CaV1.2 (Homo sapiens, UniProt Q13936)
Experiment: Two-electrode voltage clamp of CaV1.2 in Xenopus oocytes
Type: cell-based
Conditions: 10 µM CP1
Excerpt: Since CP1 has a similar effect to PIP2 in mediating VSD-pore coupling in KCNQ channels, we tested if CP1 has effects on other ion channels that are also sensitive to PIP2 or are voltage activated and share general structural features of the VSD and the pore with KCNQ. […] On the other hand, NaV1.5 and KV4.2 are voltage-gated ion channels.
Fig. 6 Effects of CP1 on other ion channels expressed in Xenopus oocytes. a Currents of Kir1.1, CaV1.2, NaV1.5, hERG, and KV4.2 before and after application of 10 µM CP1, respectively. The voltages for holding, test, and returning pulses were Kir1.1, 0 mV, −100 to +60 mV, 0; CaV1.2, −100 mV, −100 to +60, −100 mV; NaV1.5, −100, −120 to +40 mV, −120 mV; hERG, −80 mV, −90 to +60 mV, −60 mV; KV4.2, −80 mV, −100 mV to +80 mV, −40 mV; HCN4, −30 mV, −30 to −140 mV, −120 mV. b Current–voltage relations of Kir1.1 channel in the absence or presence of 10 µM CP1 (n = 7). c–g G–V relations of indicated channels with and without 10 µM CP1. The ΔV1/2 of G–V relations (mV) are CaV1.2, 3.38 ± 0.71 mV (c); NaV1.5, −2.26 ± 0.95 mV (d); hERG, 6.85 ± 1.81 mV (e); KV 4.2, −2.26 ± 2.88 mV (f); HCN4, 17.13 ± 1.59 mV (g).
Complementary DNA (cDNA) encoding human KCNQ1 (UniProtKB/Swiss‐Prot under accession no. P51787), KCNQ2 (O43526), KCNQ3 (O43525), KCNE1 (P15382), Kir1.1 (P48048), hERG (Q12809), KV4.2 (Q63881), NaV1.5 (Q14524), NaV β1 (Q07699), CaV1.2 (Q13936), CaV β1a (Q02641), CaV α2/δ1 (P54289), and HCN4 (Q9Y3Q4) were subcloned into oocyte expression vectors, respectively. Site-directed mutations of the KCNQ1 channel were all produced by overlap extension polymerase chain reaction (PCR) with high-fidelity Pfu polymerase (Stratagene, CA). The presence of the desired mutation was verified by sequencing the PCR-amplified regions. All the primer sequences used in this study are available in Supplementary Table 1. The complementary RNA (cRNA) of all these channels and mutations was transcribed in vitro with the T3, T7, or SP6 polymerase mMessage mMachine kit (Invitrogen, Thermo Fisher Scientific, MO).
The use of Xenopus laevis to obtain oocytes was approved by the Washington University Animal Studies Committee (protocol #20190030). Oocytes were manually dispersed and digested with collagenase (0.5 mg/ml, Sigma-Aldrich, Saint Louis, MO) to remove the follicle cell layer. Stage V or VI oocytes were selected and injected with cRNAs (9.2 ng) of channel or mutations. Especially, to characterize IKs, a mix of cRNAs at a molar ratio 4:1 (KCNQ1:KCNE1) was injected. For KCNQ2/KCNQ3, the molar ratio was 1:1 (KCNQ2:KCNQ3). For sodium channels, a 3:1 molar ratio (β1:NaV1.5) and for calcium channels a weight ratio 1:1:1 (β1:α2/δ1:CaV1.2) was injected, respectively. Injected oocytes were incubated in ND96 solution containing (in mM) 96 NaCl, 2 KCl, 1.8 CaCl2, 1 MgCl2, and 5 HEPES, pH 7.6, supplemented with 2.5 mM Na pyruvate and 1% penicillin–streptomycin, at 18 °C for 3–7 days before recording.
The whole-oocyte ionic currents were recorded with a GeneClamp 500B amplifier (Axon Instruments, CA) or iTEV90 amplifier (HEKA, Germany) and then sampled at 1 kHz and low-pass-filtered at 2 kHz. The Patchmaster software (HEKA, Germany) was used to acquire data. The Kir1.1 current was recorded with a high K^+ bath solution containing (in mM) 96 KCl, 4 NaCl, 1 CaCl2, 2 MgCl2, and 10 HEPES, pH 7.3–7.4. The HCN4 current was recorded in ND66 solution containing (in mM) 66 NaCl, 32 KCl, 1.8 CaCl2, 1 MgCl2, and 5 HEPES, pH 7.6. All the other potassium channels were recorded in ND96 solution. The currents of CaV1.2 channel were recorded in 40 mM Ba^2+ bath solution containing (in mM) 40 Ba(OH)2, 50 TEA-OH, 2 KOH, and 5 HEPES, adjusted to pH 7.4 with methanesulfonic acid. CP1 (DISODIUM 5-BROMO-2-[9-CHLORO-3-(SULFONATOOXY) NAPHTHO [1,2-B] THIEN-2-YL]-1H-INDOL-3-YL SULFATE, Sigma-Aldrich, MO) and Chromanol 293B (Sigma-Aldrich, MO) were dissolved in bath solutions. All the chemicals were purchased from Sigma-Aldrich. […]

Chain of CaV1.2 (Q13936 whole entry): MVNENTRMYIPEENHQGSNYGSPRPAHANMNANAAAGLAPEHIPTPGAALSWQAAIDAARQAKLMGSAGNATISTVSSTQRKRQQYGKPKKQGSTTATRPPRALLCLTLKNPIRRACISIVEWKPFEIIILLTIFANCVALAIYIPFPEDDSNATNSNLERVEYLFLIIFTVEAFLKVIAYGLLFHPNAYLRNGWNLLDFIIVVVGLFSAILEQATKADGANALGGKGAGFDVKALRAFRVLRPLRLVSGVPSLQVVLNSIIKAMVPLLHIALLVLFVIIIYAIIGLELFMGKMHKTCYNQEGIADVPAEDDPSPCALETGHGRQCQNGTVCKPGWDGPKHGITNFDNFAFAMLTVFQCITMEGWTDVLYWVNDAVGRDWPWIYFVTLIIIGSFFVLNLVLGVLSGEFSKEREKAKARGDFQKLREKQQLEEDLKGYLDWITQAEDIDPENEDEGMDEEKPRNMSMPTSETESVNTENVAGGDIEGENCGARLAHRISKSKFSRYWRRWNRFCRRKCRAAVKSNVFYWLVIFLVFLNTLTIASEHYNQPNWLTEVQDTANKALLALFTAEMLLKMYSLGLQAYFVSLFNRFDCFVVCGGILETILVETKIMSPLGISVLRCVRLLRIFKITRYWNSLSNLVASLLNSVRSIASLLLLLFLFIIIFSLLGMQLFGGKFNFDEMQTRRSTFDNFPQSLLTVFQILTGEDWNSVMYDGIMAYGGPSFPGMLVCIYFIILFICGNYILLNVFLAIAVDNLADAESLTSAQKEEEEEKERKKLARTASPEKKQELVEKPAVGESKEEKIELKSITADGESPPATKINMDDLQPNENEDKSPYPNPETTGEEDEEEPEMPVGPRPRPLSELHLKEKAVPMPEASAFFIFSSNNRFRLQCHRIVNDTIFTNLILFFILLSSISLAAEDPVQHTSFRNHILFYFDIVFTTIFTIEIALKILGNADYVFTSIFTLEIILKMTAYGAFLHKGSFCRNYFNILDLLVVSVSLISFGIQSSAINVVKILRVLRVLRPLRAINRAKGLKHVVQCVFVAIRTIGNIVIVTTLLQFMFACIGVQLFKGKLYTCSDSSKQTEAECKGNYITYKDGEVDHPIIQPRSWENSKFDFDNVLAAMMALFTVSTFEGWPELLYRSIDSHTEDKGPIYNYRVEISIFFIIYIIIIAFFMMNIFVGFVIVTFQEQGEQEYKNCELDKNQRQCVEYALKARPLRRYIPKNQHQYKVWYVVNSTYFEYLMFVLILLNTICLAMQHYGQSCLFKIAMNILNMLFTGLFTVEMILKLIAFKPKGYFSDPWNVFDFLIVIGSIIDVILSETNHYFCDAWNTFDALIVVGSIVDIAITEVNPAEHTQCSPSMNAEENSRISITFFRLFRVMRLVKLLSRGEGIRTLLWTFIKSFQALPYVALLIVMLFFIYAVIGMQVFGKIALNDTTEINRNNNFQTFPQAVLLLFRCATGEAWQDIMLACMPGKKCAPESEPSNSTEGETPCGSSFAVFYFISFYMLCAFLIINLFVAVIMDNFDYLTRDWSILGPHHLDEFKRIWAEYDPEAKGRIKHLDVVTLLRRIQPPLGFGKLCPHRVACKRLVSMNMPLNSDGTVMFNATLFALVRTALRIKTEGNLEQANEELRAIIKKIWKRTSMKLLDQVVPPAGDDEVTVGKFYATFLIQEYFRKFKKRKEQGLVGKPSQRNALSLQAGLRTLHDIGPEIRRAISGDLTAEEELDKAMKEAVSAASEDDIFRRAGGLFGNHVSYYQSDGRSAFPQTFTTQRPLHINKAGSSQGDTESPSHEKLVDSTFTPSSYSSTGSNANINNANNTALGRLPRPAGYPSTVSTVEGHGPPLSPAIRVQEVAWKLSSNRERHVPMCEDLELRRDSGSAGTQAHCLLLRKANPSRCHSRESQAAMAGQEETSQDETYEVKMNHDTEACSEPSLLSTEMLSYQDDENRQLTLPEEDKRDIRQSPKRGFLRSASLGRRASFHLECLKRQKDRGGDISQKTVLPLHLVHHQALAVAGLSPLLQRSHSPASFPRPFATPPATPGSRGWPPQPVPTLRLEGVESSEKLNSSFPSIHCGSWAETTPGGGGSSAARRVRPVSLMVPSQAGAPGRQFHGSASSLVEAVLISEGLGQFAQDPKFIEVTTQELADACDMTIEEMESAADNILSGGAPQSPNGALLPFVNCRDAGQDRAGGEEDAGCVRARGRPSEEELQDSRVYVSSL
Chain of CaV1.2 (Q02641 1-523 isoform Q02641-2 partner): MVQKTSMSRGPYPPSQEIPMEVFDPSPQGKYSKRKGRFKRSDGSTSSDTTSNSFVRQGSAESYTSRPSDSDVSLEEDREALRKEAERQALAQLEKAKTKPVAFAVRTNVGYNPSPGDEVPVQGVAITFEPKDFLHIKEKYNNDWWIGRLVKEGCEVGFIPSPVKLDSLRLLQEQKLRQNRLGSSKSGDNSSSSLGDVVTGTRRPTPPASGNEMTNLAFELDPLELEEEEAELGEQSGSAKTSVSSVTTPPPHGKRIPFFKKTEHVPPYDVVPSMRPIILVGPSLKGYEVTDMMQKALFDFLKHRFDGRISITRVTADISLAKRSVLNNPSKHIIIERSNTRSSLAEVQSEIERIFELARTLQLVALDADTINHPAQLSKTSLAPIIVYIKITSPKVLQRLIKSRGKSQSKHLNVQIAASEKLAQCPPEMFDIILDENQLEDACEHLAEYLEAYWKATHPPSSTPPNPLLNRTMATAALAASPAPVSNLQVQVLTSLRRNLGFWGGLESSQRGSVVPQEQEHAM
Chain of CaV1.2 (P54289 25-956 partner limits assumed): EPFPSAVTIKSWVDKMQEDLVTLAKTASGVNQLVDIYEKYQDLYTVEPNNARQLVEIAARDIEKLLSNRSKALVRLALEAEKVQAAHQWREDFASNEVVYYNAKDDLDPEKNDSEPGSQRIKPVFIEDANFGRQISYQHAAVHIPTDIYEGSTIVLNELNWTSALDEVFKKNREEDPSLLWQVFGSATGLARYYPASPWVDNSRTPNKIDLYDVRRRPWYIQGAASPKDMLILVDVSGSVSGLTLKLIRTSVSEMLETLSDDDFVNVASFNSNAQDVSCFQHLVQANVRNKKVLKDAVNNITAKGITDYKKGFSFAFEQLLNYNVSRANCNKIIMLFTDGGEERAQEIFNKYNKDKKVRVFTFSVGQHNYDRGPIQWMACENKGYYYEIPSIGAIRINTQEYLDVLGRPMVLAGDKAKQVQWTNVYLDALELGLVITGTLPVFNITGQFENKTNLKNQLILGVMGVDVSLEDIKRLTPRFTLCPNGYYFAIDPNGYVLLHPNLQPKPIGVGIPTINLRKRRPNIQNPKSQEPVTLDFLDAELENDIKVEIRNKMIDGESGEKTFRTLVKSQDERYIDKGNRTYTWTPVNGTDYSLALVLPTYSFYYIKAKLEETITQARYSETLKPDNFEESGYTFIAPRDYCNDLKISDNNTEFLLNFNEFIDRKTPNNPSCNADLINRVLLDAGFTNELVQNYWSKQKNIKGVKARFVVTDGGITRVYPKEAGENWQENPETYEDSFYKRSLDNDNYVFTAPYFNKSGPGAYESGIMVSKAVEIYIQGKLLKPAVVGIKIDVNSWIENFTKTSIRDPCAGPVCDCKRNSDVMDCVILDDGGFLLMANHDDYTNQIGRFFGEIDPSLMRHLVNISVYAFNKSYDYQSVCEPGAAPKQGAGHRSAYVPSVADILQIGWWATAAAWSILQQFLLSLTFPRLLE
Chain of CaV1.2 (P54289 957-1103 partner limits assumed): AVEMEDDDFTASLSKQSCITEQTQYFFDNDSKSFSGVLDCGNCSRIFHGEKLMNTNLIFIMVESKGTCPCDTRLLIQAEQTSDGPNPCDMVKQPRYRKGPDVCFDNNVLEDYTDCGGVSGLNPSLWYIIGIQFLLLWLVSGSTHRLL

O=S(=O)([O-])Oc1c(-c2sc3c(ccc4cccc(Cl)c43)c2OS(=O)(=O)[O-])[nH]c2ccc(Br)cc12.[Na+].[Na+] [CP1, DISODIUM 5-BROMO-2-[9-CHLORO-3-(SULFONATOOXY) NAPHTHO [1,2-B] THIEN-2-YL]-1H-INDOL-3-YL SULFATE]
ΔV1/2 of G–V relations: 3.38 ± 0.71 mV
G/Gmax Mean (Fig. 6c) (voltage 0 mV): 0.1903
G/Gmax Mean (Fig. 6c) (voltage 10 mV): 0.4214
G/Gmax Mean (Fig. 6c) (voltage 20 mV): 0.7222
G/Gmax Mean (Fig. 6c) (voltage 30 mV): 0.9242
G/Gmax Mean (Fig. 6c) (voltage 40 mV): 1.0000
G/Gmax Mean (Fig. 6c) (voltage -10 mV): 0.0690
G/Gmax Mean (Fig. 6c) (voltage -20 mV): 0.0228
G/Gmax Mean (Fig. 6c) (voltage -30 mV): 0.0102
G/Gmax Mean (Fig. 6c) (voltage -40 mV): 0.0076
G/Gmax Mean (Fig. 6c) (voltage -50 mV): 0.0080
G/Gmax Mean (Fig. 6c) (voltage -60 mV): 0.0090
G/Gmax Mean (Fig. 6c) (voltage -70 mV): 0.0102
G/Gmax Mean (Fig. 6c) (voltage -80 mV): 0.0108
G/Gmax Mean (Fig. 6c) (voltage -90 mV): 0.0176
G/Gmax Mean (Fig. 6c) (voltage -100 mV): 0.0169
